Consider two compounds from patent US20230000924A1, “COMPOSITIONS AND METHODS FOR GENERATION OF SINOATRIAL NODE-LIKE CELLS AND THEIR USE IN DRUG DISCOVERY” (Cornell University, priority 2019, published 2023).

In series [1] the test system is GATA5-induced progenitors. Description: qRT-PCR-based chemical screen in GATA5-induced murine ESC progenitors. The series is classed as cell-based. The text has this:
FIG. 5. Optimization of the protocol for the derivation of SAN-like cells from hPSCs a, Schematic representation of the murine differentiation protocol and qRT-PCR analysis for the expression levels of TBX3, TBX18 and SHOX2 following induction of GATA4, GATA5 or GATA6 at day 4. Fold change was normalized to level using the iGATA6 line; b, Heatmap illustration of the qPCR results of transcription-screen for TBX3, TBX18 and SHOX2; hit compounds (EGF inhibitors) from plates 1 and 3 are circled. c, The activity of tyrphostin AG490 and 2NP on the expression of TBX3, TBX18 and SHOX2; d, The activity of cucurbitacin (STAT3 inhibitor) on expression of MYH6; e, qRT-PCR analysis for TBX3, TBX18 and SHOX2 in S1+RA (left) and S1+cucurbitacin (right); f, The percentage of SHOX2:GFP^+ cells treated with different EGF inhibitors (left) and dose-response curve for effects of Tyrphostin AG490 on the percentage of SHOX2:GFP^+ cells. Fold changes were normalized to DMSO-treated group unless stated otherwise.
We developed a protocol that maximizes the generation of pluripotent stem cell-derived SAN pacemaker lineages (PSC-SAN). […] We therefore applied GATA5-induced progenitors to an unbiased qRT-PCR-based chemical screen using annotated pathway modulating compounds to identify modulators that further enhance the expression of TTS and specification toward pacemaker lineage. […]
In general terms: In qPCR the cycle at which signal appears reflects the starting amount.

The next series deals with murine SAN. In words: Ex vivo murine atrial explants (SAN cell death, contraction rhythmicity). On the procedure:
FIG. 15. […] Quantification of contraction rhythmicity of explants was calculated by the COV as described above.
FIG. 16. […] Quantification of contraction rhythmicity of explants was calculated by the COV as described above.
Thus, we used an ex vivo model to document the direct effect of Doxorubicin and Physcion on the murine SAN. Whole, intact atrial explants were incubated with 1 μM doxorubicin or 1 uM doxorubicin+20 μM Physcion for 3 hrs.

The subject of series [2] is SHOX2:GFP+ hPSC-SAN cells. In words: DOXO toxicity, cleaved caspase3+ cells, in hPSC-SAN cells. Format: cell-based, human. Particulars: 0.16 μM DOXO, 3 days, day 35 pacemaker-like cells. On the procedure:
(§1) FIG. 4. Pharmacogenetics and drug discovery for doxorubicin-mediated acute cell toxicity using hPSC-SAN cells. a, Relative cell toxicity of hESC-SAN and hESC-V cells upon DOXO treatment based on immunostaining of antibody against cleaved-caspase3. The fold change was calculated by dividing the percentage of cleaved caspase-3^+ cells in GFP^+ or mCherry^+ cells in the DOXO-treated condition by the percentage of cleaved caspase-3^+ cells in GFP^+ or mCherry^+ cells in the DMSO-treated condition (n=10); b, Sensitivity of day 30 hiPSC-SAN cells derived from 48 hiPSC lines upon DOXO treatment. 48 hiPSC lines were differentiated toward SAN-like cells and split into two equal samples, which were treated with 0.16 μM doxorubicin or DMSO for 3 days. The fold change was calculated by dividing the percentage of cleaved caspase-3^+ cells in ISL1^+ cells in the DOXO-treated condition by the percentage of cleaved caspase-3^+ cells in ISL1^+ cells in the DMSO-treated condition. […] Data are mean±s.e.m. Data were normalized to non-DOXO treated cells.

Another series relates to HCN4+ SAN cells. Particulars: mouse, in vivo. The procedure:
FIG. 12. […] Immunofluorescence of intact atria isolated from Doxorubicin (two IP injections of 10 mg/kg at 3 day intervals) treated mice euthanized 9 days after initial treatment. Cell death (caspase 3, green) was analyzed in either myocardial (cTroponin, blue) or SAN tissue (HCN4, red).
FIG. 13. […] Contractions of intact atria isolated from vehicle (left panels) or Doxorubicin (right panels) treated mice (30 sec recordings;) x axis=[…]. […] Quantification of contraction rhythmicity of hearts was calculated by the coefficient of variance (COV)=std dev of peak to peak contraction time/average peak to peak contraction time.
C57BL/6 mice were treated with 20 mg/kg Doxorubicin by intraperitoneal injection.

The next series relates to A549 xenograft tumors. Description: A549 xenograft mouse model. The series is classed as in vivo. Particulars: IP once a week for two weeks, 4 mg/kg. On the procedure:
FIG. 18. […] We tested the effects of Doxorubicin and Physcion using an A549 xenograft mouse model. Mice with A549 xenograft tumors were treated with vehicle, Doxorubicin, Physcion, or Doxorubicin plus Physcion. Doxorubicin and Physcion treatment was administered by IP injection once a week for two weeks, at a concentration of 4 mg/kg wt for both compounds.

Series [3] concerns hPSC-SAN cells differentiated from 48 distinct iPSC lines. Description: DOXO sensitivity of hPSC-SAN cells differentiated from 48 iPSC lines (cleaved caspase-3 / ISL1 staining). The series is classed as cell-based, human. Particulars: 0.16 μM DOXO, 3 days. On the procedure: FIG. 4. […] Data are mean±s.e.m. Data were normalized to non-DOXO treated cells.
To identify genetic variation that associates with the sensitivity of pacemaker cells to DOXO-induced toxicity, we performed an unbiased screen using a library of hPSC-SAN cells differentiated from 48 distinct iPSC lines. Cells differentiated for 35 days were treated with 0.16 μM DOXO for 3 days. Due to the lack of a robust antibody to SHOX2, an antibody recognizing ISL1 that is co-expressed with SHOX2:GFP (FIG. 2a), was used to identify hPSC-SAN cells that co-stain for cleaved caspase-3, as an assay for cytotoxicity. […] We identified 14 “high-sensitive” iPSC lines that generate hPSC-SAN cells displaying DOXO-induced apoptosis rates greater than 4-fold compared to DMSO-treated cells (FIG. 4b). To test if this platform can be applied toward in vitro pharmacogenomics, the iPSC clones were sequenced at several genomic regions harboring known SNPs associated with increased DOXO-mediated cardiotoxicity, including rs1056892, rs2229774 and rs885004 (in or near the genes CBR3, RARG and SLC28A3, respectively). 10 out of the 14 high-sensitive iPSC lines harbored one of these 3 SNPs (FIG. 4c). All 4 of the lines carrying the risk allele of rs1056892 generated hPSC-SAN cells with more than 4-fold increased toxicity. This is consistent with findings that CBR3 is expressed in heart tissue and functions for drug metabolism.

The subject of series [4] is SHOX2:GFP-; MHC6:mCherry+ cardiomyocytes. Particulars: 0.16 μM DOXO, 3 days, day 35 cardiomyocytes. The procedure:
as §1

The conditions of series [5]: cited from earlier work.

For the compound cucurbitacin, in series [1], the “expression levels of nodal and atrial structural marker MYH6” value is on record as “enhances the expression levels”.
On to `COc1cccc2c1C(=O)c1c(O)c3c(c(O)c1C2=O)C[C@@](O)(C(=O)CO)C[C@@H]3O[C@H]1C[C@H](N)[C@H](O)[C@H](C)O1` [Doxorubicin], for which, in the series with murine SAN (1 μM doxorubicin, 3 hrs), the “SAN cell death in atrial explants” value was “localized SAN cell death” and the “contractility of atrial explants” value is “irregular contractility”. In the series on murine SAN (1.5 μM Doxorubicin), the “contraction rhythmicity of explants (COV)” value is “irregular contractions marked by significantly higher variance in the time between contractions”. In series [2], the “cytotoxicity (percentage of cleaved caspase3+ cells)” value is “significant cytotoxicity”. Besides, in the series on HCN4+ SAN cells, the “variance in the time between contractions (coefficient of variance, COV)” value is given as “significantly higher variance in the time between contractions”. Moreover, the “tumor burden / growth (tumor wt. and volume), single agent” value in the series with A549 xenograft tumors was “reduction in tumor wt. and volume”. Besides, the “DOXO-induced apoptosis rate compared to DMSO-treated cells” value in series [3] (14 high-sensitive iPSC lines) is “greater than 4 fold”. The increased toxicity entry in series [3] (all 4 lines carrying the risk allele of rs1056892) is recorded as “greater than 4 fold”. Besides, the “percentage of cleaved caspase3+ ISL1 cells following DOXO” value in series [3] (hPSC-SAN cells from all 48 iPSC lines) is recorded as “at least some increase”. The “cell death (percentage of cleaved caspase3+ cells)” value in series [4] is “no significant increase in cell death”. In addition, the sub-clinical systolic dysfunction in series [5] (of treated patients) was around 40%. Moreover, the DOXO-induced cardiomyopathy in series [5] (treated patients) is listed as 10-20%.
